# Laboratory results taken from ChEMBL document CHEMBL1141326, “An HIV RNase H inhibitory 1,3,4,5-tetragalloylapiitol from the African plant Hylodendron gabunensis” (J Nat Prod, 2007).
# Calls of active or inactive are those of the source. The calls are words filed in the database; no cut-off is given here.
# Legend:
# [1] = Inhibition of human RNase H by FRET assay
# [2] = Inhibition of HIV2 RNase H by FRET assay; parameters: species or system Human immunodeficiency virus 2
# Escherichia coli = test: Inhibition of Escherichia coli RNase H at 10 uM by FRET assay
# [3] = Inhibition of HIV1 RNase H by FRET assay; parameters: species or system Human immunodeficiency virus 1
structure (smiles),measurement,setting,value
O=C(OC[C@H](OC(=O)c1cc(O)c(O)c(O)c1)C(O)(COC(=O)c1cc(O)c(O)c(O)c1)COC(=O)c1cc(O)c(O)c(O)c1)c1cc(O)c(O)c(O)c1,IC50,[1],1500 nM
same,IC50,[2],130 nM
same,Activity,Escherichia coli,inactive
same,IC50,[3],240 nM
